What was measured:
[1] = target: T1, Class 1 phosphodiesterase PDEB1 (Trypanosoma brucei) (UniProt Q8WQX9); assay: Inhibition of Trypanosoma brucei recombinant PDEB1 at 10 uM pre-incubated for 5 mins prior to substrate addition
T1 sequence (whole entry): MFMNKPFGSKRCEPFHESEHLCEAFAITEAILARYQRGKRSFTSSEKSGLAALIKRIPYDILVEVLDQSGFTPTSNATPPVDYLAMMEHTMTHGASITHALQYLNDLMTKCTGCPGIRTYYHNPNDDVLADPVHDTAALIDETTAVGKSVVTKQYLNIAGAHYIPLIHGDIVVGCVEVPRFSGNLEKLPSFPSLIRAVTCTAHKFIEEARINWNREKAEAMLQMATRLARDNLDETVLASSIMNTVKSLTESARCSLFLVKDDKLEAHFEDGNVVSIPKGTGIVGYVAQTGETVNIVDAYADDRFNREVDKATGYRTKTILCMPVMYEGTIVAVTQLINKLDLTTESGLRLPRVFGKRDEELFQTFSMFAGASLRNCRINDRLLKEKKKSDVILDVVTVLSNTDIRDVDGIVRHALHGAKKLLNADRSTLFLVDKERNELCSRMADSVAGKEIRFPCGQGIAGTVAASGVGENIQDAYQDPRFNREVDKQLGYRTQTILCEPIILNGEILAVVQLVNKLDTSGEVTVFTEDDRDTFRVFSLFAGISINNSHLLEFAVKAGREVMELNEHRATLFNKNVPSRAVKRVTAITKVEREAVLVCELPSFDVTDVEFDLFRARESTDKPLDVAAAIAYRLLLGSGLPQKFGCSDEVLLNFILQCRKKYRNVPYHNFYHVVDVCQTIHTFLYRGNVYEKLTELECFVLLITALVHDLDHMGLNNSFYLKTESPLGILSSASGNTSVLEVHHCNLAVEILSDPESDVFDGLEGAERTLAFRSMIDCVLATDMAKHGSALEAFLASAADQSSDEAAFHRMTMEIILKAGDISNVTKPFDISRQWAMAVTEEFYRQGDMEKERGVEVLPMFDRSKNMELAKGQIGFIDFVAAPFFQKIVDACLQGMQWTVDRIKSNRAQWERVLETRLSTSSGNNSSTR

[2] = Cytotoxicity against mouse NIH/3T3 cells by Alamar blue cell viability assay; format: cell-based, NIH3T3; settings: read-out: TC50 (the source's name)
Trypanosoma brucei = assay: Antiparasitic activity against Trypanosoma brucei after 22 to 24 hrs by Alamar blue cell viability assay; format: functional, organism-based
[3] = Inhibition of Trypanosoma brucei PDEB2
[4] = target: T2, Class 1 phosphodiesterase PDEB1 (Trypanosoma brucei, UniProt Q8WQX9); assay: Inhibition of Trypanosoma brucei recombinant PDEB1 pre-incubated for 5 mins prior to substrate addition
T2 sequence (Q8WQX9 whole entry): T1 sequence (whole entry)

| Compound | inhibition [1] | IC50 [4] | also measured |
| --- | --- | --- | --- |
| COc1ccc([C@]2(C#N)CC[C@@H](C(=O)O)CC2)cc1OCCCCOc1ccccc1 | 96% |  | CC50 [2]: > 50 µM; EC50 (Trypanosoma brucei): 26 µM; IC50 [3]: 2.1 µM |
| COc1ccc([C@]2(C#N)CC[C@@H](C(=O)O)CC2)cc1OCCCCOc1ccc(C)cc1 | 74% | 4.9 µM |  |
| COc1ccc([C@]2(C#N)CC[C@H](C(=O)O)CC2)cc1OCc1ccccc1 | 20% |  |  |
| COc1ccc(OCCCCOc2cc([C@]3(C#N)CC[C@@H](C(=O)O)CC3)ccc2OC)cc1 | 79% | 3.5 µM |  |
| COc1ccc(C2(C#N)CCN(CC(=O)O)CC2)cc1OC1CCCC1 | 11% |  |  |
| COc1ccc([C@]2(C#N)CC[C@@H](C(=O)OC)CC2)cc1OCc1ccccc1 | 40% |  |  |
| COc1ccc([C@]2(C#N)CC[C@@H](C(=O)O)CC2)cc1OCCCCCOc1ccccc1 | 54% | 9.8 µM |  |
| COc1ccc([C@]2(C#N)CC[C@@H](C(=O)O)CC2)cc1OCCCCOc1ccc(F)cc1 | 79% | 9.2 µM |  |
| COc1ccc([C@]2(C#N)CC[C@@H](C(=O)OC)CC2)cc1OC1CCCC1 | 31% |  |  |
| COc1ccc([C@]2(C#N)CC[C@H](C(=O)OC)CC2)cc1OCc1ccccc1 | 28% |  |  |
| CCOC(=O)CN1CCC(C#N)(c2ccc(OC)c(OC3CCCC3)c2)CC1 | 6% |  |  |
| COc1ccc(C2(C#N)CCNCC2)cc1OC1CCCC1 | 19% |  |  |
| COc1ccc([C@]2(C#N)CC[C@@H](C(=O)O)CC2)cc1OCCCCOc1ccc(-c2nn[nH]n2)cc1 | 69% | 7.9 µM |  |
| COc1ccc([C@]2(C#N)CC[C@H](C(=O)O)CC2)cc1OC1CCCC1 | 9.3% |  |  |
| COc1ccc([C@]2(C#N)CC[C@@H](C(=O)O)CC2)cc1OC1CCCC1 [CILOMILAST] |  | 16 µM | CC50 [2]: > 50 µM; EC50 (Trypanosoma brucei): > 50 µM |
| COc1ccc([C@]2(C#N)CC[C@@H](C(=O)O)CC2)cc1OCCCCOc1ccc(C#N)cc1 | 87% | 3.6 µM |  |
| COc1ccc([C@]2(C#N)CC[C@@H](C(=O)O)CC2)cc1OCc1ccncc1 | 11% |  |  |
| COc1ccc([C@]2(C#N)CC[C@@H](C(=O)O)CC2)cc1OCc1ccccn1 | 33% |  |  |
| COc1ccc([C@]2(C#N)CC[C@@H](C(=O)O)CC2)cc1OCCCOc1ccccc1 | 66% | 11 µM |  |
| COc1ccc([C@]2(C#N)CC[C@H](C(=O)OC)CC2)cc1OC1CCCC1 | 26% |  |  |
| COc1ccc([C@]2(C#N)CC[C@@H](C(=O)O)CC2)cc1OCc1ccccc1 | 77% | 12 µM |  |
